“And” between values parts separate entries of the source, which are not always exact repeats. Equal values may be shown once. Values belong to the molecule of their own block, whether it stands above or below them.
Key:
[1] = Free radical scavenger, SOD mimetic activity (xanthine/xanthine oxidase, NBT); assay type: biochemical
Protocol: SO101C or vehicle was incubated with 0.12 mM xanthine, 6 mU xanthine oxidase, 27 μM nitroblue tetrazolium (NBT), 0.11 mM EDTA, 0.005% bovine serum albumin and Na2CO3 at pH 10.5 at 25° C. for 20 minutes. Conversion of xanthine to uric acid +O^−+NBT to formazan was then determined by measurement of absorbance at 595 nm and percent inhibition by superoxide dismutase or test compound was calculated.

MMP-2 [2] = target: T1, MMP-2 (Homo sapiens, UniProt P08253); assay: Inhibition of MMP-2 activity in cell free system, gelatin zymography; assay type: biochemical; details: for MMP-2 activity (% of control): 24 hours
T1 construct: Serum free culture supernatant of confluent human dermal fibroblast was used as the source of MMP; endogenous in cells; host or cells: human dermal fibroblasts, serum-free culture supernatant
T1 sequence (P08253 110-660): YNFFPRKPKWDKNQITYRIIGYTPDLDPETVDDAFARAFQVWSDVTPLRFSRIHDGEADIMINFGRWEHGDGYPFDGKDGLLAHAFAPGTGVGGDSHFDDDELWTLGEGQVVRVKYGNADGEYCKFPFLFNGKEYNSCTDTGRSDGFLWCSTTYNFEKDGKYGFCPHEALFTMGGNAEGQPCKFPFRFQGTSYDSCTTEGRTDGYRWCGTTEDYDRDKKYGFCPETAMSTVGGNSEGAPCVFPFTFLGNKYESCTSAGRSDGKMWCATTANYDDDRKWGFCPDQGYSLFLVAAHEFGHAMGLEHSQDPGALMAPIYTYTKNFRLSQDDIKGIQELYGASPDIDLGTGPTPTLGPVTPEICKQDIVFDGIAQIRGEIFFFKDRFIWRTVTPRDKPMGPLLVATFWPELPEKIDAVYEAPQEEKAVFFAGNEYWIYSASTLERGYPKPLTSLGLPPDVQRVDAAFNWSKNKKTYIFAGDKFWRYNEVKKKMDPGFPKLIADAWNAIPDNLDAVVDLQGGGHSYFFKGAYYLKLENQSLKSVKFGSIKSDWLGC
Protocol: Serum free culture supernatant of confluent human dermal fibroblast was used as the source of MMP. Equal amount of the supernatant treated with equal volume of 2 fold concentration of SDS sample buffer without reducing agent was subjected to electrophoresis The samples were loaded into each well of a 10% SDS polyacrylamide gel containing 1 mg/ml of bovine gelatin (Sigma), and run at 20 mA in ice bath by a BioRad Mini Protean gel apparatus. After dye front reached the bottom of the gel, the gel was washed three times, 15 minutes each, with 2.5% Triton X-100. Then, the gel was sliced and incubated in developing buffer (50 mM Tris-HCl, pH7.6, 10 mM CaCl2, 50 mM NaCl, 0.05% Brij35) containing SO101C or EDTA or vehicle at 37° C. for 24 hours. The gel was stained with 0.1% Coomassie blue R250 (Sigma) in 40% methanol and 10% acetic acid, and destained in 30% methanol and 7% acetic acid. The enzyme digested clear bands were visualized in the blue background. The comparison of the enzymatic activities (clear band width) was analyzed by Image J (NIH).

chondrocytes = assay: ALP, collagen and GAGs synthesis in chondrocytes in micromass culture (staining), without or with H2O2; assay type: cell-based, Human; details: 1 mM; same experimental conditions
Protocol: Human articular cartilage was obtained from patients who received total joint replacement with consent. The cartilage was digested with 1 mg/ml of Class 2 and Class 4 bacterial collagenase (Worthington Chemical, Freehold, N.J.) in DMEM containing 10% fetal calf serum (FCS) and 25 μg/ml Gentamicin (C-DMEM, Gibco, Grand Island, […]) at 37° C. overnight. […] Ten μl of 1×10^7 cells/ml in C-DMEM was seeded into the center of each well of 48 multiwell culture dish (Nunc, Roskilde, Danmark). […] The media were changed twice a week for two weeks. At the end of the incubation, the media were changed with fresh DMEM. Twenty-four hours later, the media were collected for MMP zymography study and cells were fixed and stained for alkaline phosphatase (ALP), collagen or glycosaminoglycan using Naphthol AS-MX phosphate/Fast red, Sirius red, or Safranin O (Sigma), respectively.

[3] = tested on: Human bone marrow mesenchymal stem cells; assay: ALP, collagen and GAGs synthesis in bone marrow mesenchymal stem cells in micromass culture (staining); assay type: cell-based; details: 1 mM; same experimental conditions
Protocol: Human bone marrow mesenchymal stem cells were obtained from patients receiving total joint replacement with consent. […] Ten μl of 1×10^7 cells/ml in C-DMEM was seeded into the center of each well of 48 multiwell culture dish (Nunc, Roskilde, Danmark). […] The media were changed twice a week for two weeks. At the end of the incubation, cells were fixed and stained for alkaline phosphatase (ALP), collagen or glycosaminoglycan using Naphthol AS-MX phosphate/Fast red, Sirius red, or Safranin O (Sigma), respectively.

MMP-2 [4] = assay: MMP-2 activities of treated chondrocyte culture supernatants, gelatin zymography; assay type: cell-based, Human; details: 1 mM; chondrocytes treated 2 weeks
Protocol: Ten μl of 1×10^7 cells/ml in C-DMEM was seeded into the center of each well of 48 multiwell culture dish (Nunc, Roskilde, Danmark). Two hours later, 250 μl of F12/DMEM containing 5% FCS, 6.25 μg/ml bovine insulin, 25 μg/ml ascorbic acid and 100 nM Dexamethasone (induction medium) with various concentrations of herbal composition or glucosamine (Sigma) was added. The media were changed twice a week for two weeks. At the end of the incubation, the media were changed with fresh DMEM.
Equal amount of protein of each culture medium was mixed with equal volume of 2 fold concentration of non-reducing SDS sample buffer, and incubated at room temperature for two hours for sample to denature. The samples were loaded into each well of a 10% SDS polyacrylamide gel containing 1 mg/ml of bovine gelatin (Sigma), and run at 20 mA in ice bath by a BioRad Mini Protean gel apparatus. After dye front reached the bottom of the gel, the gel was washed three times, 15 minutes each, with 2.5% Triton X-100. Then, the gel was renatured in developing buffer (50 mM Tris-HCl, pH7.6, 10 mM CaCl2, 50 mM NaCl, 0.05% Brij35) at 37° C. for 24 hours. The gel was stained with 0.1% Coomassie blue R250 (Sigma) in 40% methanol and 10% acetic acid, and destained in 30% methanol and 7% acetic acid. […] The comparison of the enzymatic activities (clear band width) was analyzed by Image J (NIH).

human chondrocytes = assay: Gene expression of chondrocytes (RT-PCR, normalized by β-Actin); assay type: cell-based; details: 2 weeks
Protocol: Reverse transcription was carried out at 37° C. for one hour by a programmable thermal controller (PTC-100, MJ Research, Inc., Watertown, Mass.). Reaction was terminated by raising the temperature to 93° C. for five minutes. PCR was performed in a thermal controller (PTC-100, MJ Research, Inc., Watertown, Mass.) with master mix (HotStarTaq DNA polymerase, Qiagen) at initial denaturation at 95° C. for 15 minutes, followed by 25 cycles of 94° C. for 1 minute, 58° C. for 40 seconds, and 72° C. for 40 seconds. The final cycle extended 72° C. for 10 minutes. The PCR products accompanied by 100 bp ET marker were separated by 1.2% agarose gel, stained with ethidium bromide and visualized under UV light. A Polaroid picture was taken by Foto/Phoresis UV documentation system (Fotodyne Inc.). Beta-actin expression under the same experimental conditions was used as a reference to normalize the expressions. The comparison of bend width of PCR was analyzed by Image J (NIH) after normalized by the expression of β-Actin.

[5] = 2,2-diphenyl-1-picrylhydrazyl (DPPH) radical scavenging activity; details: for Absorbance at 517 nm, Sample 1 to 3: 30 minutes, single samples; for Absorbance at 517 nm, Average: control 0.963
Protocol: SO101C, vitamin C or vitamin E at various concentrations were incubated with 0.4 mM 2,2-diphenyl-1-picrylhydrazyl (DPPH, Sigma) in ethanol at room temperature for 30 minutes. Absorbance at 517 nm was measured by a spectrophotometer.

[6] = target: T2, MMP-3 (stromelysin-1, human recombinant catalytic domain) (Homo sapiens, UniProt P08254); assay: Inhibition of MMP-3 enzyme activity, fluorogenic substrate; assay type: biochemical
T2 construct: MMP-3 (stromelysin-1, human recombinant catalytic domain from Calbiochem Cat. 444217); purchased Calbiochem 444217
T2 sequence (P08254 100-272 limits assumed): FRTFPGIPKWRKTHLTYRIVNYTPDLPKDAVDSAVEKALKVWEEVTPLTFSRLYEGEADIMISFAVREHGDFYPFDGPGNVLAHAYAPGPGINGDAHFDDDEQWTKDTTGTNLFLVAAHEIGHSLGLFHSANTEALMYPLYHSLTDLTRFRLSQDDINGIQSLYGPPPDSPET
Protocol: (§1) MMP-3 (stromelysin-1, human recombinant catalytic domain from Calbiochem Cat. 444217) was activated by p-aminophenylmercuric acetate for 60 minutes at 37° C. After preincubation of SO101C or vehicle with the activated enzyme (5 nM) in a reaction mixture containing 50 mM MOPS (pH 7.2), 10 mM CaCl2 and 10 μM ZnCl2 at 37° C. for 60 minutes, the reaction was initiated by addition of 4 μM (7-methoxycoumarin-4-yl)acetyl-Pro-Leu-Gly-Leu-N-3-(2,4-dinitrophenyl)-L-2,3-diaminopropinoyl-Ala-Arg-NH2 and incubated for a further 120 minutes at 37° C. Enzyme activity was determined spectrofluorometrically by measuring the formation of fluorescent (7-methoxycoumarin-4-yl)acetyl-Pro-Leu-Gly.

[7] = target: T3, MMP-13 (human recombinant) (Homo sapiens, UniProt P45452); assay: Inhibition of MMP-13 enzyme activity, fluorogenic substrate; assay type: biochemical
T3 construct: purchased Calbiochem 444248; host or cells: Sf9
Protocol: as §1, with “MMP-13 proenzyme (human recombinant, expressed in Sf9 cell,” for “MMP-3 (stromelysin-1, human recombinant catalytic domain from”, “444248)” for “444217)”, “with the activated enzyme (0.5” for “(5”, “ZnCl2 for 60 minutes” for “ZnCl2”, “C.,” for “C. for 60 minutes,”

[8] = Anti-lipid peroxidation activity (malondialdehyde/thiobarbituric acid); assay type: biochemical, Mouse; details: for OD (A532-A600): control (0) 0.973
Protocol: Mouse brain KCl extract was used as the source of lipid. Brain extract was incubated with 1 mM FeSO4 and 0.1 mM vitamin C at 37° C. for 90 minutes. The malondialdehyde formed by peroxyl radical was reacted with thiobarbituric acid to form an adduct that absorbed at 532 nm after centrifugation to discard TCA precipitation.

Molecule: O=C(O[C@@H]1Cc2c(O)cc(O)cc2O[C@@H]1c1ccc(O)c(O)c1)c1cc(O)c(O)c(O)c1 [(−)-Epicatechin gallate]
Inhibition (%) ([1]; 6.1 μM): 50% | IC50 ([1]; read-out: Concentration giving 50 % inhibition (SOD mimetic assay)): 6100 nM

inhibition of MMP-2 activity in cell free system (in words) (MMP-2 [2]): showed dose dependent inhibition | MMP-2 activity (% of control) (MMP-2 [2]; 0.1 mM): 46.6 % of control | MMP-2 activity (% of control) (MMP-2 [2]; 0.3 mM): 30.5 % of control
Molecule: O=C(O)CN(CCN(CC(=O)O)CC(=O)O)CC(=O)O [EDTA]

Molecule: N[C@H]1C(O)O[C@H](CO)[C@@H](O)[C@@H]1O (stereo partly drawn) [Glucosamine, glucosamine]
effects on ALP, collagen and GAGs in chondrocytes (in words) (chondrocytes): did not show significant effects | effect on ALP, collagen and GAGs in bone marrow mesenchymal stem cells (in words) [3]: did not show significant effect | MMP-2 activity (% of control) Active form (66K) (MMP-2 [4]): 118.2 % of control | MMP-2 activity (% of control) Latent form (72K) (MMP-2 [4]): 92.5 % of control | Gene expression (% of control) ALP (human chondrocytes; 1 mM): 180.0 % of control | Gene expression (% of control) Aggrecan (human chondrocytes; 1 mM): 133.7 % of control | Gene expression (% of control) Aggrecanase (human chondrocytes; 1 mM): 130.9 % of control | Gene expression (% of control) BMP-2 (human chondrocytes; 1 mM): 173.4 % of control | Gene expression (% of control) Col II (human chondrocytes; 1 mM): 162.4 % of control | Gene expression (% of control) TGF-β (human chondrocytes; 1 mM): 120.9 % of control | expression of cartilage metabolism related genes (in words) (human chondrocytes; SO101C 0.01 mg/ml or glucosamine 1 mM): stimulated the expression of most of the cartilage metabolism related genes

Molecule: O=C1O[C@H]([C@@H](O)CO)C(O)=C1O [Vitamin C, vitamin C]
Inhibition (%) ([5]; 0.01 mM): 19.5% | Absorbance at 517 nm, Sample 1 to 3 ([5]; 0.01 mM): 0.753 and 0.790 and 0.781 | Absorbance at 517 nm, Average ([5]; 0.01 mM): 0.775 | Inhibition (%) ([5]; 0.03 mM): 64.8% | Absorbance at 517 nm, Sample 1 to 3 ([5]; 0.03 mM): 0.321 and 0.362 and 0.333 | Absorbance at 517 nm, Average ([5]; 0.03 mM): 0.339 | Inhibition (%) ([5]; 0.1 mM): 92.5% | Absorbance at 517 nm, Sample 1 to 3 ([5]; 0.1 mM): 0.068 and 0.079 | Absorbance at 517 nm, Average ([5]; 0.1 mM): 0.072

Inhibition (%) ([6]; 0.0076 μM): 50% | IC50 ([6]; read-out: Concentration giving 50 % inhibition of MMP-3): 7.6 nM | Inhibition (%) ([7]; 0.0068 μM): 50% | IC50 ([7]; read-out: Concentration giving 50 % inhibition of MMP-13): 6.8 nM
Molecule: TIMP-1: reference agent in the MMP-3 and MMP-13 inhibition tables

Molecule: vitamin E
Inhibition (%) ([5]; 0.01 mM): 30.6% | Absorbance at 517 nm, Sample 1 to 3 ([5]; 0.01 mM): 0.647 and 0.688 and 0.668 | Absorbance at 517 nm, Average ([5]; 0.01 mM): 0.668 | Inhibition (%) ([5]; 0.03 mM): 76.9% | Absorbance at 517 nm, Sample 1 to 3 ([5]; 0.03 mM): 0.213 and 0.208 and 0.245 | Absorbance at 517 nm, Average ([5]; 0.03 mM): 0.222 | Inhibition (%) ([5]; 0.1 mM): 77.5% | Absorbance at 517 nm, Sample 1 to 3 ([5]; 0.1 mM): 0.204 and 0.241 and 0.205 | Absorbance at 517 nm, Average ([5]; 0.1 mM): 0.217 | inhibition of lipid peroxidation (in words) [8]: dose dependently inhibited lipid peroxidation | OD (A532-A600) ([8]; 0.003 mM): 0.844 | OD (A532-A600) ([8]; 0.01 mM): 0.697 | OD (A532-A600) ([8]; 0.03 mM): 0.526
